Source: article PMC6801448, “The Antioxidant and Antiproliferative Activities of 1,2,3-Triazolyl-L-Ascorbic Acid Derivatives” (International Journal of Molecular Sciences, 2019)
Read-outs that look alike come from different tables or passages of the source.

Key:
[1] = system: CFPAC-1 (ductal pancreatic adenocarcinoma); test: MTT proliferation assay, CFPAC-1; type: cell-based; details: Homo sapiens, 72 h
Method: (§1) Human tumor cell lines HeLa (cervical carcinoma), SW620 (colorectal adenocarcinoma, metastatic), A549 (lung adenocarcinoma), MCF−7 (breast adenocarcinoma), CFPAC-1 (pancreatic adenocarcinoma, metastatic), HCT-116 (colorectal carcinoma), and HepG2 (hepatocellular carcinoma), and normal cell lines HFF-1 (foreskin fibroblasts) and WI-38 (immortalized human lung fibroblast), were from the US American Type Culture Collection (ATCC, Manassas, VA, USA). Cells were cultured in a liquid nutrient medium (Dulbecco’s Modified Eagle Medium, LONZA, Basel, Switzerland) supplemented with 10% fetal bovine serum (FBS, Gibco, Grand Island, NY, USA), 2 mM L-glutamine (GIBCO, Grand Island, NY, USA), 100 μg/mL penicillin, and 100 μg/mL streptomycin (LONZA, Basel, Switzerland), in an incubator (NÜVE, Ankara, Turkey), at a humid atmosphere with 5% CO2 at 37 °C. Trypsin/EDTA Solution (Lonza, Basel, Switzerland), was used for cell passaging and cell detachment.
(§2) Adherent cells were seeded on 96 well microtiter plates (Falcon, New York, NY, USA) at a seeding density of 5000 cells per well, added in 150 μL of cell suspension in a nutrient medium. 24 h after seeding, cells were treated with compound 4b–4g, 4i, 4k–4t, 4v, 7c–7g, and 7i–7q dilutions in the range of 0.01 μM to 100 μM. L-ascoric acid (Sigma Aldrich, Darmstadt, Germany) and Carboxyamidotriazole (Sigma Aldrich, Darmstadt, Germany) were used as control compounds. Incubation of the cells with the compounds were performed for 72 h in a 5% CO2, in humid atmosphere at 37 °C. After incubation, nutrient medium was removed and 40 μL of the MTT reagent ([…]-2,5-diphenyltetrazole bromide (Invitrogen, Carlsbad, CA, USA) was added to each well. 3 h after incubation, 160 μL of DMSO (VWR CHEMICALS, Radnor, PA, USA) were added to each well to dissolve the crystals of purple formazane. The absorbance was measured at 570 nm (TECAN SUNRISE Microtiter plate reader (Männedorf, Switzerland). The experimentally measured optical densities (OD) were converted to the PG (percentage of growth), using the formulas according to the protocol assumed by NIH (National Institute of Health). The IC50 values (concentration causing 50% cell growth inhibition) for each compound were calculated by regression analysis of the survival count curve of the concentrations of the tested compounds. The results were processed in Excel 2010 (Microsoft, Redmond, WA, USA).

[2] = system: A549 (lung adenocarcinoma); test: MTT proliferation assay, A549; type: cell-based; details: Homo sapiens, 72 h
Method: as §1, §2

[3] = system: HCT-116 (colorectal carcinoma); test: MTT proliferation assay, HCT-116; type: cell-based; details: Homo sapiens, 72 h
Method: as §1, §2

[4] = system: HeLa (cervical carcinoma); test: MTT proliferation assay, HeLa; type: cell-based; details: Homo sapiens, 72 h
Method: as §1, §2

[5] = system: MCF-7 (breast adenocarcinoma); test: MTT proliferation assay, MCF-7; type: cell-based, Human; details: Homo sapiens, MCF7; 72 h, MTT
Method: as §1, §2

[6] = system: HFF-1 (foreskin fibroblasts); test: MTT proliferation assay, HFF-1; type: cell-based; details: Homo sapiens, 72 h, normal foreskin fibroblasts
Method: as §1, §2

[7] = system: tested cell lines (A549, CFPAC-1, HCT-116, HeLa, HepG2, MCF-7, SW620, WI-38, HFF-1); test: MTT proliferation assay, whole tested cell panel; type: cell-based, Human; details: 0.01 µM to 100 µM, 72 h
Method: The C-6 substituted 1,2,3-triazole derivatives of L-ASA within the C5-OH group ([…], 4i, 4k−4t, and 4v) and with the C4=C5 double bond (7c−7g and 7i−7q) were evaluated against seven malignant tumor cell lines: lung adenocarcinoma (A549), ductal pancreatic adenocarcinoma (CFPAC-1), colorectal carcinoma (HCT-116), cervical carcinoma (HeLa), hepatocellular carcinoma (HepG2), breast adenocarcinoma (MCF-7), colorectal adenocarcinoma, and metastatic (SW620); as well as normal cell lines: lung fibroblasts (WI-38) and foreskin fibroblasts (HFF-1) (Table 3, Table S1, Supplementary Information). L-ASA was used as a positive control, and carboxyamidotriazole, a known antiproliferative agent that inhibits tumor cell growth, invasion, and metastasis, and 5-fluorouracil (5-FU), were used as reference compounds.
as §1, §2

[8] = system: SW620 (colorectal adenocarcinoma, metastatic); test: MTT proliferation assay, SW620; type: cell-based; details: Homo sapiens, SW-620, 72 h
Method: as §1, §2

[9] = system: HepG2 (hepatocellular carcinoma); test: MTT proliferation assay, HepG2; type: cell-based; details: Homo sapiens, 72 h
Method: as §1, §2

[10] = system: WI-38 (lung fibroblasts); test: MTT proliferation assay, WI-38; type: cell-based; details: Homo sapiens, 72 h, normal lung fibroblasts
Method: as §1, §2

[11] = DPPH radical scavenging assay; type: biochemical
Method: Likewise, L-ASA, the 1,2,3-triazole L-ASA derivatives with free C2-OH and C3-OH groups were expected to be potent antioxidants. Therefore, they were tested as radical scavengers by reaction with the stable free radical 2,2-diphenyl-1-picrylhydrazyl (DPPH^•).
Antioxidant capacity of selected compounds was assessed by 2,2-diphenyl-1-picrylhydrazyl assay (DPPH, Sigma Aldrich, Darmstadt, Germany), in which the antioxidant activity of compounds is measured by the reaction between a stable radical of 1,1-diphenyl-2-picylhydrazil (DPPH^•) and a selected compound according to the manufacturer recommendations. Briefly, compounds 4b–4e, 4f–4h, 4k, 4l, 4o, 4p–4s, 4t, 4v, 7c–7f, 7i–7n, 7q, 7p, and 7o were tested at 0.06, 0.12, 0.18, 0.23, 0.25, and 0.28 mM. L-ascorbic acid was used as the reference compound. Absorbance was measured 5 and 10 min after incubation of the compounds with the DPPH reagent. The reduction of DPPH with selected compounds was monitored by measuring the absorbance at a wavelength of 517 nm on the monochromator (Infinite M200 PRO, TECAN, Männedorf, Switzerland).

[12] = 5 min treatment, read-out: IC50 of DPPH• inhibition, Treatm. 5 min
[13] = 10 min treatment, read-out: IC50 of DPPH• inhibition, Treatm. 10 min

NC(=O)c1nnn(Cc2cc(Cl)c(C(=O)c3ccc(Cl)cc3)c(Cl)c2)c1N [Carboxyamidotriazole, carboxyamidotriazole, reference compound]
IC50 [1]: 41.6 µM
IC50 [2]: 51.6 µM
IC50 [3]: 19.9 µM
IC50 [4]: 31.8 µM
IC50 [5]: 14.7 µM
IC50 [6]: 32.6 µM
antiproliferative / cytotoxic effect on the tested cell lines (in words) [7]: non-selective, moderate antiproliferative effect
IC50 [8]: 41.3 µM
IC50 [9]: 40.1 µM

Cc1ccc(-c2cn(C[C@H](O)[C@H]3OC(=O)C(O)=C3O)nn2)cc1 [Compound 4f, 6-deoxy-6-[4-tolyl-1,2,3-triazol-1-yl]-L-ascorbic acid]
melting point: 152 to 154 °C
IC50 [1]: > 100 µM
IC50 [2]: > 100 µM
IC50 [3]: > 100 µM
IC50 [10]: > 100 µM
IC50 [4]: > 100 µM
IC50 [11, 12]: 200 ± 20 µM
IC50 [11, 13]: 140 ± 10 µM
IC50 [5]: > 100 µM
IC50 [6]: 69.3 µM
antiproliferative / cytotoxic effect on the tested cell lines (in words) [7]: did not show any cytotoxic effects
IC50 [8]: > 100 µM
IC50 [9]: > 100 µM

O=C1O[C@H]([C@@H](O)Cn2cc(-c3cc(C(F)(F)F)cc(C(F)(F)F)c3)nn2)C(O)=C1O [Compound 4c, 6-deoxy-6-[4-(3,5-bis(trifluoromethyl)phenyl)-1,2,3-triazol-1-yl]-L-ascorbic acid]
melting point: ≥ 250 °C
IC50 [1]: > 100 µM
IC50 [2]: > 100 µM
IC50 [3]: > 100 µM
IC50 [10]: > 100 µM
IC50 [4]: > 100 µM
IC50 [11, 12]: 260 ± 20 µM
IC50 [11, 13]: 250 µM
IC50 [5]: > 100 µM
IC50 [6]: > 100 µM
IC50 [8]: > 100 µM
IC50 [9]: > 100 µM

O=C1O[C@H]([C@@H](O)Cn2cc(-c3cc(F)cc(F)c3)nn2)C(O)=C1O [Compound 4d, 6-deoxy-6-[4-(3,5-difluorophenyl)-1,2,3-triazol-1-yl]-L-ascorbic acid]
melting point: 189 to 191 °C
IC50 [1]: 75.8 µM
IC50 [2]: 81.7 µM
IC50 [3]: 64.8 µM
IC50 [10]: > 100 µM
IC50 [4]: 56.8 µM
IC50 [11, 12]: 270 ± 10 µM
IC50 [11, 13]: 270 µM
IC50 [5]: 39.8 µM
IC50 [6]: 0.12 µM
antiproliferative / cytotoxic effect on the tested cell lines (in words) [7]: nonspecific cytostatic effect
IC50 [8]: 92 µM
IC50 [9]: 95.3 µM

O=C1O[C@H]([C@@H](O)Cn2ccnn2)C(O)=C1O [Compound 4b, 6-deoxy-6-(1,2,3-triazol-1-yl)-L-ascorbic acid]
melting point: 219 to 221 °C
IC50 [1]: > 100 µM
IC50 [2]: > 100 µM
IC50 [3]: > 100 µM
IC50 [10]: > 100 µM
IC50 [4]: > 100 µM
IC50 [11, 12]: 130 µM
IC50 [11, 13]: 130 µM
IC50 [5]: > 100 µM
antiproliferative / cytotoxic effect on the tested cell lines (in words) [7]: not cytotoxic
IC50 [8]: > 100 µM
IC50 [9]: > 100 µM

CC(C)(C)c1cn(C[C@H](O)[C@H]2OC(=O)C(O)=C2O)nn1 [Compound 4o, 6-[4-(tert-butyl)-1,2,3-triazol-1-yl]-6-deoxy-L-ascorbic acid]
melting point: ≥ 250 °C
IC50 [1]: > 100 µM
IC50 [2]: > 100 µM
IC50 [3]: > 100 µM
IC50 [10]: 95 µM
IC50 [4]: 93 µM
IC50 [11, 12]: 240 ± 28 µM
IC50 [11, 13]: 240 ± 40 µM
IC50 [5]: > 100 µM
IC50 [6]: < 0.01 µM
IC50 [8]: > 100 µM
IC50 [9]: > 100 µM

COc1ccc(-c2cn(C[C@H](O)[C@H]3OC(=O)C(O)=C3O)nn2)cc1 [Compound 4g, 6-deoxy-6-[4-methoxyphenyl-1,2,3-triazol-1-yl]-L-ascorbic acid]
IC50 [1]: > 100 µM
IC50 [2]: > 100 µM
IC50 [3]: > 100 µM
IC50 [10]: > 100 µM
IC50 [4]: > 100 µM
IC50 [11, 12]: 190 ± 10 µM
IC50 [11, 13]: 190 ± 10 µM
IC50 [5]: > 100 µM
IC50 [6]: > 100 µM
antiproliferative / cytotoxic effect on the tested cell lines (in words) [7]: did not show any cytotoxic effects
IC50 [8]: > 100 µM
IC50 [9]: > 100 µM

O=C1O[C@H]([C@@H](O)Cn2cc(C3CC3)nn2)C(O)=C1O [Compound 4l, 6-[4-cyclopropyl-1,2,3-triazol-1-yl]-6-deoxy-L-ascorbic acid]
melting point: 119 to 121 °C
IC50 [1]: > 100 µM
IC50 [2]: > 100 µM
IC50 [3]: > 100 µM
IC50 [10]: > 100 µM
IC50 [4]: > 100 µM
IC50 [11, 12]: 170 ± 160 µM
IC50 [11, 13]: 160 ± 140 µM
IC50 [5]: > 100 µM
IC50 [6]: 4.61 µM
IC50 [8]: > 100 µM
IC50 [9]: > 100 µM

O=C1O[C@H]([C@@H](O)Cn2cc(CCCCl)nn2)C(O)=C1O [Compound 4p, 6-[4-(3-chloropropyl)-1,2,3-triazol-1-yl]-6-deoxy-L-ascorbic acid]
melting point: 86 to 88 °C
IC50 [1]: > 100 µM
IC50 [2]: > 100 µM
IC50 [3]: > 100 µM
IC50 [10]: 52.6 µM
IC50 [4]: 48 µM
IC50 [11, 12]: 150 ± 60 µM
IC50 [11, 13]: 150 ± 60 µM
IC50 [5]: 99.6 µM
IC50 [6]: 6.05 µM
IC50 [8]: > 100 µM
IC50 [9]: > 100 µM
